Test system: KRAS patient-derived spheroids with HUVEC/MSC, viability
Experiment: Anticancer human tumor 519858-162-T-J1-PDC patient-derived colon adenocarcinoma cell line growth inhibition [KRAS2]
Details: for IC50: curve of first compound; for viability, T/C: stronger effect = lower value
Description: Multicellular complex tumor spheroid response to RAS pathway inhibitors in combination with a targeted agents in patient-derived cell lines with oncogenic KRAS variants from multiple cancer types
A high-throughput screen of multi-cell type tumor spheroids was designed to identify active combinations of targeted small molecules and KRAS pathway inhibitors. Complex spheroids include a stromal component modeled by human endothelial cells (HUVEC) and fibroblasts modeled by human mesenchymal stem cells (MSCs). The concentration ranges selected for each drug and investigational agent were based upon clinically achievable concentrations if the clinical Cmax of the agent was known.
Compounds. The drugs and investigational agents: BI-3406 (NSC825286), BAY-293 (NSC824723), batoprotafib (TNO155; NSC825523), sotorasib (AMG 510; NSC818433), MRTX1257 (NSC819558), elimusertib (BAY 1895344; NSC800525), molibresib (GSK525762; NSC774829), temuterkib (LY3214996; NSC803410), venetoclax (NSC766270), alisertib (NSC759677), olaparib (NSC753686), talazoparib (NSC767125), erdafitinib (NSC781556), ipatasertib (NSC767898), cabozantinib (NSC761068), nintedanib (NSC756659), abemaciclib (NSC768073), docetaxel (NSC628503), trametinib (NSC758246), and sapanisertib (NSC764658) were obtained from the National Cancer Institute (NCI) Developmental Therapeutics Program Chemical Repository. The FDA-approved anticancer drug set is available from the Developmental Therapeutics Program. […] The stock solutions were prepared in dimethyl sulfoxide (DMSO, Sigma-Aldrich, St. Louis, MO, cat. D2650) at 800-fold the tested concentration and stored at -70 degrees C prior to their use. All drugs and investigational agents were tested over a range starting from a high concentration at or near the clinical Cmax and decreasing in half-log increments. If the clinical Cmax for an agent had not been determined, the highest concentration tested was 10 microM.
Cell Culture. All cells were maintained in an incubator at 37 degrees C and 5% CO2 with 95% humidity. The PDC lines were cultured according to standard operating procedures established by the NCI PDMR (https://pdmr.cancer.gov/sops/default.htm). Briefly, all PDCs were thawed and cultured in Matrigel-coated flasks prepared with a working solution of 1X Ham's F-12 nutrient mix, without supplementation (Invitrogen, Waltham, MA, cat. 11765054), 100 U/mL penicillin-streptomycin (Invitrogen, cat. 15140122), and 2.5% Matrigel (Corning Inc., Corning, NY, cat. 354248) for the first three passages. All PDCs were cultured in complete DMEM/F-12 media containing advanced DMEM/F-12 (Invitrogen, cat. 12634028), 4.9% defined fetal bovine serum, heat inactivated (HyClone Laboratories Inc., Logan, UT, cat. SH30070.03HI), 389 ng/mL hydrocortisone (Sigma-Aldrich, cat. H4001), 9.7 ng/mL human EGF recombinant protein (Invitrogen, cat. PHG0313), 23.4 microg/mL adenine (Sigma-Aldrich, cat. A2786), 97.3 U/mL penicillin-streptomycin (Invitrogen, cat. 15140122), 1.9 mM L-glutamine (Invitrogen, cat. 25030081), and 9.7 microM Y-27632 dihydrochloride (Tocris Bioscience, Bristol, United Kingdom, cat. 1254). The PDCs were cultured in complete DMEM/F12 media without 9.7 microM Y-27632 dihydrochloride for at least two passages prior to the screen. The established cell line HOP-62 was cultured in RPMI 1640 medium, HEPES (Invitrogen, cat. 22400105) with 10% defined fetal bovine serum (HyClone Laboratories Inc., cat. SH30070.03) and 2 mM L-glutamine (Invitrogen, cat. 25030081). The pooled donor HUVEC were cultured in endothelial cell growth medium 2 (PromoCell, Heidelberg, Germany, cat. C-22011) and the hMSC were cultured in mesenchymal stem cell growth medium 2 (PromoCell, cat. C-28009). For all experiments, HUVEC and hMSC were used at passages </=5, while the malignant cell lines were used at passages </=15. […]

[1] = second compound 0.1 µM, first compound 0.0316 µM
[2] = second compound 0.316 µM, first compound 0.0316 µM
[3] = second compound 1 µM, first compound 0.0316 µM
[4] = second compound 3.16 µM, first compound 0.0316 µM
[5] = second compound 10 µM, first compound 0.0316 µM
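Note: compound exposure lasted seven days before readout.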
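Throughout, for viability, T/C: 100% = DMSO vehicle control viability.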

For `CC(=O)Nc1cccc(-n2c(=O)n(C3CC3)c(=O)c3c(Nc4ccc(I)cc4F)n(C)c(=O)c(C)c32)c1` + C=CC(=O)N1CCN(c2nc(=O)n(-c3c(C)ccnc3C(C)C)c3nc(-c4c(O)cccc4F)c(F)cc23)C(C)C1, which IC50 (second compound 0.1 µM) is on record?
The IC50 was 6.3 nM.

What about the IC50 (second compound 0.316 µM) of the same compound?
Its IC50 is 5.48 nM.

And the IC50 (second compound 1 µM)?
The IC50 was 7.54 nM.

And the IC50 (second compound 3.16 µM)?
The IC50 was 7.41 nM.

And the IC50 (second compound 10 µM)?
Its IC50 is 4.51 nM.

What about the viability, T/C (second compound 0.1 µM, first compound 0.0001 µM) of the same compound?
The viability, T/C was 104%.

And the viability, T/C (second compound 0.1 µM, first compound 0.000316 µM)?
The viability, T/C was 99.5%.

What about the viability, T/C (second compound 0.1 µM, first compound 0.001 µM) of the same compound?
The viability, T/C was 66.3%.

And the viability, T/C (second compound 0.1 µM, first compound 0.00316 µM)?
Its viability, T/C is 83.8%.

And the viability, T/C (second compound 0.1 µM, first compound 0.01 µM)?
Its viability, T/C is 28.9%.

And the viability, T/C [1]?
Its viability, T/C is 20%.

And the viability, T/C (second compound 0.316 µM, first compound 0.0001 µM)?
The viability, T/C was 85.3%.

What about the viability, T/C (second compound 0.316 µM, first compound 0.000316 µM) of the same compound?
The viability, T/C was 97.7%.

And the viability, T/C (second compound 0.316 µM, first compound 0.001 µM)?
The viability, T/C was 93.4%.

What about the viability, T/C (second compound 0.316 µM, first compound 0.00316 µM) of the same compound?
The viability, T/C was 59.4%.

And the viability, T/C (second compound 0.316 µM, first compound 0.01 µM)?
The viability, T/C was 40.7%.

What about the viability, T/C [2] of the same compound?
Its viability, T/C is 23.8%.

And the viability, T/C (second compound 1 µM, first compound 0.0001 µM)?
The viability, T/C was 96.6%.

What about the viability, T/C (second compound 1 µM, first compound 0.000316 µM) of the same compound?
Its viability, T/C is 67.9%.

And the viability, T/C (second compound 1 µM, first compound 0.001 µM)?
The viability, T/C was 79.7%.

And the viability, T/C (second compound 1 µM, first compound 0.00316 µM)?
Its viability, T/C is 74.9%.

What about the viability, T/C (second compound 1 µM, first compound 0.01 µM) of the same compound?
The viability, T/C was 41.9%.

What about the viability, T/C [3] of the same compound?
Its viability, T/C is 25.1%.

What about the viability, T/C (second compound 3.16 µM, first compound 0.0001 µM) of the same compound?
Its viability, T/C is 74.2%.

And the viability, T/C (second compound 3.16 µM, first compound 0.000316 µM)?
Its viability, T/C is 79%.

And the viability, T/C (second compound 3.16 µM, first compound 0.001 µM)?
The viability, T/C was 76.3%.

And the viability, T/C (second compound 3.16 µM, first compound 0.00316 µM)?
Its viability, T/C is 102%.

And the viability, T/C (second compound 3.16 µM, first compound 0.01 µM)?
Its viability, T/C is 38.4%.

What about the viability, T/C [4] of the same compound?
Its viability, T/C is 19.1%.

What about the viability, T/C (second compound 10 µM, first compound 0.0001 µM) of the same compound?
The viability, T/C was 89.7%.

And the viability, T/C (second compound 10 µM, first compound 0.000316 µM)?
The viability, T/C was 90.5%.

What about the viability, T/C (second compound 10 µM, first compound 0.001 µM) of the same compound?
Its viability, T/C is 107%.

And the viability, T/C (second compound 10 µM, first compound 0.00316 µM)?
The viability, T/C was 61.5%.

What about the viability, T/C (second compound 10 µM, first compound 0.01 µM) of the same compound?
The viability, T/C was 31%.

What about the viability, T/C [5] of the same compound?
The viability, T/C was 17.4%.

Which results are given for `COc1cc(Nc2ncc3c(n2)-c2ccc(Cl)cc2C(c2c(F)cccc2OC)=NC3)ccc1C(=O)O` + C=CC(=O)N1CCN(c2nc(=O)n(-c3c(C)ccnc3C(C)C)c3nc(-c4c(O)cccc4F)c(F)cc23)C(C)C1?
IC50 (second compound 0.1 µM): > 10000 nM; IC50 (second compound 0.316 µM): > 10000 nM; IC50 (second compound 1 µM): > 10000 nM; IC50 (second compound 3.16 µM): > 10000 nM; IC50 (second compound 10 µM): > 10000 nM; viability, T/C [1]: 104%; viability, T/C (second compound 0.1 µM, first compound 0.1 µM): 62.4%; viability, T/C (second compound 0.1 µM, first compound 0.316 µM): 89.9%; viability, T/C (second compound 0.1 µM, first compound 1 µM): 102%; viability, T/C (second compound 0.1 µM, first compound 3.16 µM): 104%; viability, T/C (second compound 0.1 µM, first compound 10 µM): 120%; viability, T/C [2]: 80%; viability, T/C (second compound 0.316 µM, first compound 0.1 µM): 91.2%; viability, T/C (second compound 0.316 µM, first compound 0.316 µM): 74.1%; viability, T/C (second compound 0.316 µM, first compound 1 µM): 53.3%; viability, T/C (second compound 0.316 µM, first compound 3.16 µM): 89.9%; viability, T/C (second compound 0.316 µM, first compound 10 µM): 125%; viability, T/C [3]: 97.2%; viability, T/C (second compound 1 µM, first compound 0.1 µM): 94.4%; viability, T/C (second compound 1 µM, first compound 0.316 µM): 91.5%; viability, T/C (second compound 1 µM, first compound 1 µM): 85.5%; viability, T/C (second compound 1 µM, first compound 3.16 µM): 83%; viability, T/C (second compound 1 µM, first compound 10 µM): 125%; viability, T/C [4]: 134%; viability, T/C (second compound 3.16 µM, first compound 0.1 µM): 74.8%; viability, T/C (second compound 3.16 µM, first compound 0.316 µM): 57.1%; viability, T/C (second compound 3.16 µM, first compound 1 µM): 90.1%; viability, T/C (second compound 3.16 µM, first compound 3.16 µM): 71.3%; viability, T/C (second compound 3.16 µM, first compound 10 µM): 91.1%; viability, T/C [5]: 95.1%; viability, T/C (second compound 10 µM, first compound 0.1 µM): 74.1%; viability, T/C (second compound 10 µM, first compound 0.316 µM): 83%; viability, T/C (second compound 10 µM, first compound 1 µM): 71%; viability, T/C (second compound 10 µM, first compound 3.16 µM): 73%; viability, T/C (second compound 10 µM, first compound 10 µM): 103%

Source: PubChem BioAssay AID1963872 (Molecular Pharmacology Branch, DTP, NCI, 2024)
